Laboratory results published in publication PMC8924334, “Synthesis of [^11C]carbonyl-labeled cyclohexyl (5-(2-acetamidobenzo[d]thiazol-6-yl)-2-methylpyridin-3-yl)carbamate ([^11C-carbonyl]PK68) as a potential PET tracer for receptor-interacting protein 1 kinase” (EJNMMI Radiopharmacy and Chemistry, 2022).

Target: T1, RIPK1 (Mus musculus, UniProt Q60855)
T1 construct: RIPK1 in liver of healthy mouse would exist with nonnegligible level; from tissue; host or cells: living healthy mice; volumes of interest on heart, lung, liver, kidney, small intestine, muscle and brain
T1 sequence (Q60855 1-656): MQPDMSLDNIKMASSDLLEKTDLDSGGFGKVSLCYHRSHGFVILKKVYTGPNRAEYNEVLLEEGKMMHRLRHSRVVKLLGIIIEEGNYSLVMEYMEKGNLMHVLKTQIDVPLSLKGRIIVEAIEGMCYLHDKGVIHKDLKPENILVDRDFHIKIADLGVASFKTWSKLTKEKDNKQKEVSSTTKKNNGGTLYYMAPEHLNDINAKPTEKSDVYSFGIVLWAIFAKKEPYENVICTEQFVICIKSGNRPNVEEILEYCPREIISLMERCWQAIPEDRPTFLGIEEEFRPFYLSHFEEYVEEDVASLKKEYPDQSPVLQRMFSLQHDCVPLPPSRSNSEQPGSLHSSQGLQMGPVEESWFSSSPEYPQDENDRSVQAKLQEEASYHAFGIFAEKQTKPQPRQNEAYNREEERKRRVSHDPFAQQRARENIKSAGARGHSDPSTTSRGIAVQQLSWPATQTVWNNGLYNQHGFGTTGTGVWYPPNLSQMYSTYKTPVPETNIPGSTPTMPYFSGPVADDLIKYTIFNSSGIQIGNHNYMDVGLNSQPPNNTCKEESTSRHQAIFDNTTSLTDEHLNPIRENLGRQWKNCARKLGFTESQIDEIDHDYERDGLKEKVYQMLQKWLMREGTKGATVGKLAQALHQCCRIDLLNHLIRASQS
Assay: Small-animal PET imaging, baseline and blocking with unlabeled PK68
Type: in vivo, mice
Procedure: Each mouse was anesthetized using 1.5% (v/v) isoflurane, and an intravenous catheter was inserted into its tail vein. The mice (10–14 weeks old, 48.1 ± 7.4 g) were subsequently maintained under anesthesia and secured in a custom-designed chamber placed in the center of a small-animal PET scanner (Inveon, Siemens Healthineers, Erlangen, Germany). After adjusting the target position for scanning, dynamic emission scans (in three-dimensional list mode) were performed for 60 min (1 min × 4 frames, 2 min × 8 frames, and 5 min × 8 frames). [^11C]PK68 (11–16 MBq) was injected via a tail vein catheter. The body temperature of each mouse was maintained at 37 °C using a heated (40 °C) water circulation system (T/Pump TP401, Gaymar Industries, NY, USA) during the PET scan. For the blocking study, the mice were pretreated with unlabeled PK68 (1 mg/kg) just before the injection of [^11C]PK68. The obtained dynamic PET images (0.6 mm slice thickness) were reconstructed by filtered-back projection using a Hanning filter, with a Nyquist cutoff of 0.5 cycles per pixel. The time–activity curves (TACs) of [^11C]PK68 were acquired using PMOD software (version 3.4, PMOD Technology, Zurich, Switzerland) from the volumes of interest, which were manually mapped onto the heart, lung, liver, kidney, small-intestine (part of duodenum), muscle, and brain. The radioactivity was decay-corrected to the injection time and is expressed as a standardized uptake value (SUV), normalized for injected radioactivity and body weight. The SUV was calculated according to the following formula: SUV = (radioactivity per milliliter tissue/injected radioactivity) × body weight (g). We also calculated the area under the curve (AUC) using TACs from 0 to 60 min.

[1] = blocking with unlabeled PK68 1 mg/kg i.v.

## Cc1ncc(-c2ccc3nc(N[11C](C)=O)sc3c2)cc1NC(=O)OC1CCCCC1 [[^11C]PK68, Cyclohexyl (5-(2-[^11C-carbonyl]acetamidobenzo[d]thiazol-6-yl)-2-methylpyridin-3-yl)carbamate]
baseline
  peak radioactivity in kidney: 2.7 SUV
  peak radioactivity in liver: 4.8 SUV
Baseline mice, PET, i.v.
  uptake of radioactivity by the brain: < 0.3 SUV
baseline, after injection
  time of peak radioactivity in kidney: 1.5 min
  time of peak radioactivity in liver: 2.5 min
[1]
  peak radioactivity in kidneys: 2.3 SUV
  peak radioactivity in liver: 4.2 SUV
Healthy mice
  specific binding for RIPK1 in PET imaging: no obvious specific binding
N = 2 per group
  difference in AUC (0-60 min) in liver and kidney, baseline vs blocking: no significant differences
Unlabeled PK68 1 mg/kg i.v.
  reduction of maximum SUV in liver and kidney by blocking: roughly 15%
